Results taken from BindingDB's records for doi:10.1016/0014-2999(92)90578-r (Novo Nordisk, 1992).
Values joined by “and” are separate entries in the source; they are usually repeats but may differ in a detail not shown here. Equal entries are not always repeated.

Key:
Adenylate cyclase type 2 = Adenylate cyclase type 2 (Rattus norvegicus, UniProt P26769)
D(2) dopamine receptor = D(2) dopamine receptor (Rattus norvegicus, UniProt P61169)
[1] = target: 5-hydroxytryptamine receptor 2A (Rattus norvegicus, UniProt P14842)
D(1A) dopamine receptor = D(1A) dopamine receptor (Rattus norvegicus, UniProt P18901)
D(1A) dopamine receptor, sequence (P18901 whole entry): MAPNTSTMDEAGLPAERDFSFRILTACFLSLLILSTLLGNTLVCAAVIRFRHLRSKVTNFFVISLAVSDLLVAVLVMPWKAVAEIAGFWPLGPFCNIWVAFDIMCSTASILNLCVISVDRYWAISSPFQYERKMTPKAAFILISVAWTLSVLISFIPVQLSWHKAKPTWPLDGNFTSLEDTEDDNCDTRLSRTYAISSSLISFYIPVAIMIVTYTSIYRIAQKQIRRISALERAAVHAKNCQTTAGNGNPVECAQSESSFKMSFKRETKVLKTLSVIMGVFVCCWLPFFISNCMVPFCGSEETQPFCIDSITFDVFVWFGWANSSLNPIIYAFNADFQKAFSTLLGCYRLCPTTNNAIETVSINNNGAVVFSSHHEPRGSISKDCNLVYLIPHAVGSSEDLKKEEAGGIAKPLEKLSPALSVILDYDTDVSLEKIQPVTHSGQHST

D(2) dopamine receptor, sequence (P61169 whole entry): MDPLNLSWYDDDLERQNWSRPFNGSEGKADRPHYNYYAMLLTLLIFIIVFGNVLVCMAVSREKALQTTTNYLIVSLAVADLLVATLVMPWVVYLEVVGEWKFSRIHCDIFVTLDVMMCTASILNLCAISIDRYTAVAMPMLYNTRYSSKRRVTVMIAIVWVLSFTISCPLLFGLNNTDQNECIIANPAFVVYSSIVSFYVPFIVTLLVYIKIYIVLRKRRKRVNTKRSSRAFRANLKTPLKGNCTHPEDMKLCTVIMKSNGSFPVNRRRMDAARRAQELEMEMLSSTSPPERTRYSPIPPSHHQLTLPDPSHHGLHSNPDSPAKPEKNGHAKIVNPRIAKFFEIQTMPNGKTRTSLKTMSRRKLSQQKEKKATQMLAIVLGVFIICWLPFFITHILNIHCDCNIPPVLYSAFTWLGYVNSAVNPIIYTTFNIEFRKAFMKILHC
Adenylate cyclase type 2, sequence (P26769 whole entry): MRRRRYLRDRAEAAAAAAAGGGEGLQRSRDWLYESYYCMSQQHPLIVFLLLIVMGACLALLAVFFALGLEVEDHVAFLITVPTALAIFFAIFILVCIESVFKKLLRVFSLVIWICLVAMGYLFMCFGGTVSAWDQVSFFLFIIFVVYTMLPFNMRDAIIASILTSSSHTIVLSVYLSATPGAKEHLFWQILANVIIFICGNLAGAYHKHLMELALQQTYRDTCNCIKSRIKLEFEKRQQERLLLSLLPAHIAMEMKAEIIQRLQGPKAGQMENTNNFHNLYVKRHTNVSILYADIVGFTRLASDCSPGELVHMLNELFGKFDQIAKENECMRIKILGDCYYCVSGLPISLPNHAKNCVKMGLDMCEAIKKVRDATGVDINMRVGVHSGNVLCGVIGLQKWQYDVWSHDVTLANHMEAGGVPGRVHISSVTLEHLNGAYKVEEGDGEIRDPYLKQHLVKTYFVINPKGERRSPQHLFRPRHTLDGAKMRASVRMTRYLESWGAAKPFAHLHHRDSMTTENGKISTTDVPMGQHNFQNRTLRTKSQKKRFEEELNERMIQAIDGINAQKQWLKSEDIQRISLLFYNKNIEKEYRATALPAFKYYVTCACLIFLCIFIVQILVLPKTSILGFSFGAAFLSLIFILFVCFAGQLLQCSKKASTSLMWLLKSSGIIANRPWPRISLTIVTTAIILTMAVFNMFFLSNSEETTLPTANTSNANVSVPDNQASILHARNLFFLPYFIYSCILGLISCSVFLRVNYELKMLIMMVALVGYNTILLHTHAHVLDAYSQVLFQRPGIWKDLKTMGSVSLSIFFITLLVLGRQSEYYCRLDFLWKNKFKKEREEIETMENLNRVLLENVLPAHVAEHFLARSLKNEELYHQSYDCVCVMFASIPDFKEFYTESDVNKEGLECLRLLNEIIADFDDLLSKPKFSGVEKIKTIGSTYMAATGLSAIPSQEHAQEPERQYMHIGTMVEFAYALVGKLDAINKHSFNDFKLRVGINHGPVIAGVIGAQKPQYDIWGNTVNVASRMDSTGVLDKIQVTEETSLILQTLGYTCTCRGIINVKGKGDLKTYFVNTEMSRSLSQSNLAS
5-hydroxytryptamine receptor 2A, sequence (P14842 whole entry): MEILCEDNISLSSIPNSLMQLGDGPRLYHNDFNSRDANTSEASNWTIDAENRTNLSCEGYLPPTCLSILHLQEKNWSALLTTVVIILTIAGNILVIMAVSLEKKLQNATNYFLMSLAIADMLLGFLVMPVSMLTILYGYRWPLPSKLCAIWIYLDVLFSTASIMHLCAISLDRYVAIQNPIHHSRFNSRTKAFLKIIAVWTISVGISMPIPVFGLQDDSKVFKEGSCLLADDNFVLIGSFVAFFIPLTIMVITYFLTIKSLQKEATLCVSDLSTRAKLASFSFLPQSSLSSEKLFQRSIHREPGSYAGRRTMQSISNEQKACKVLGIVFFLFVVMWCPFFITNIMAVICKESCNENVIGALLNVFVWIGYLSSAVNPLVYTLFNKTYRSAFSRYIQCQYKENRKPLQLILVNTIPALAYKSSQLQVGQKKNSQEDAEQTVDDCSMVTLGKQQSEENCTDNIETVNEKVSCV

SMILES: CN1CCc2cc(Cl)c(O)cc2[C@@H](c2ccccc2)C1 [SCH 23390,R(+)]
- Ki (Adenylate cyclase type 2): 39.9 nM

SMILES: CN1CCc2cc([N+](=O)[O-])c(O)cc2C(c2cccc3c2OCC3)C1 (stereo not drawn) [CAS_164252]
- Ki (D(2) dopamine receptor): > 10000 nM
- Ki [1]: 355 nM
- Ki (D(1A) dopamine receptor): 5.8 nM
- Ki (Adenylate cyclase type 2): 9.1 nM

SMILES: Oc1cc2c(cc1O)[C@@H](c1ccccc1)CNCC2
- Ki [1]: > 10000 nM
- Ki (Adenylate cyclase type 2): 415 nM

SMILES: CN1CCc2cc(Cl)c(O)cc2[C@@H](c2cccc3ccoc23)C1
- Ki (D(2) dopamine receptor): 898 nM and 988 nM
- Ki (Adenylate cyclase type 2): 2.8 nM

SMILES: CN1CCc2cc(Cl)c(O)cc2C(c2cccc3c2OCC3)C1 (stereo not drawn) [NSC_132421]
- Ki (D(2) dopamine receptor): 942 nM
- Ki [1]: 4.5 nM
- Ki (D(1A) dopamine receptor): 0.17 nM
- Ki (Adenylate cyclase type 2): 2.2 nM
